The text below walks through data of patent publication US20090324500A1, “SCREEN FOR INFLAMMATORY RESPONSE MODULATORS” (priority 2006, published 2009).

This experiment concerns neutrophils. Nature of the experiment: Tail transection injury in transgenic MPO:GFP zebrafish larvae, neutrophil counts at the site of injury. The format is in vivo. From the text:
AB strain zebrafish from existing aquarium stocks were maintained according to standard protocols. A BAC containing approx 130 kB of 5′ promoter sequence to the MPO gene was identified (zC91B8). This BAC was modified to contain an in-frame GFP sequence beginning at the translation start site of the MPO gene by recombinase activity as previously described (Lee, E. C. et al (2001) Genomics 73, 56-65). EL250 cells required for the recombination step were a kind gift of Dr. Neal Copeland, National Cancer Institute, Frederick, […]., USA. Insertion of the GFP sequence was confirmed by co-insertion of a kanamycin resistance gene, which in turn was flanked by FRT sites leading to its easy removal before introduction into the zebrafish. As part of this process a vector was created consisting of a truncated portion of the Bluescript vector, into which we had blunt cloned a construct consisting of GFP and the FRT-flanked Kanamycin resistance gene, all of which was flanked by MPO homology arms. Using this construct, we were able to add a Nuclear Localising Sequence corresponding to that used in the Clontech vector pEYFPnuc by PCR and self ligation.
The modified BACs were injected into fertilised AB zebrafish embryos at the 1-2 cell stage, and larvae screened at 36-48 hours for the presence of fluorescence. Fluorescent larvae were grown to maturity and either in- or out-crossed to identify germ cell carriage of the transgene.
A BAC containing over 100 kb of sequence 5′ to the Zebrafish MPO promoter was identified and modified to contain an in frame GFP sequence (FIG. 3). This was then injected into zebrafish embryos at the 1-cell stage and a transgenic line created. GFP expression recapitulates the expression of myeloperoxidase in cells whose morphology is consistent with neutrophil granulocytes (see FIG. 4). When these fish are injured, neutrophils accumulate at the site of injury over time (FIGS. 5 and 6).
Neutrophil number at the site of injury following tail transection can be assessed either by manual counting (FIG. 7a) or by automated image analysis (FIG. 7b).
Manipulation of the inflammatory response in transgenic zebrafish has been performed exemplifying the role of manipulation of granulocyte apoptosis in regulating the resolution of inflammation. […] P<0.05 for t=24, zVD.fmk treated vs all other groups (1 way ANOVA with Bonferroni post test correction).
In FIG. 8b counts of fluorescent cells in individual larvae were performed for fish in the presence or absence of the bacterial product Lipopolysaccharide (LPS). LPS was added at 6 hours post injury (hpi), and counts made at 6 and 24 hpi. […] In FIG. 8c, Pyocyanin (a bacterial pigment with pro-apoptotic effects on neutrophils) was added at 4 hpi, and counts made at 8 hpi.

Turning to Lipopolysaccharide [LPS], where the note is “added at 6 hpi, counts at 6 and 24 hpi, vs untreated fish, p<0.05, FIG. 8b”, the “% reduction in neutrophil numbers” value was “significantly lower”. For the compound `Cn1c2cccc(=O)c-2nc2ccccc21` [Pyocyanin], the “absolute cell counts (neutrophil numbers)” value (added at 4 hpi, counts at 8 hpi, FIG. 8c) is reported as “reduce neutrophil numbers”. With `CC(C)[C@H](NC(=O)OCc1ccccc1)C(=O)NC(CC(=O)O)C(=O)CF` (stereo partly shown) [zVD.fmk], the “neutrophil numbers at the inflammatory site (resolution of inflammation)” value (between 6 hours and 24 hours after injury, FIG. 8a, P<0.05 at t=24 vs all other groups) is on record as “persistence of neutrophil numbers”. Besides, the “effect on granulocyte apoptosis” value (transgenic zebrafish, FIG. 8a) was “delays apoptosis”.
